Data as given in patent US5354861A, “2-(benzyl)-3-arylbenzofurans as antitumour and hypocholesterolemic agents” (National University of Singapore, priority 1992, dated 1994).
Where “and” joins values, the source holds several entries; their conditions need not be identical. Identical values can stand only once. Each block holds one compound with its values, some of them ahead of it.

Columns and labels:
[1] = test system: antiestrogen-binding sites (AEBS); assay: Competitive displacement of [3H]tamoxifen from AEBS in EL4 whole cells; conditions: 5 nM [3H]tamoxifen, competitor 50 nM-1000 nM, tamoxifen = 100, mean ± SEM of two experiments
Description: ^a Determined by competitive ligand binding assays using EL4 whole
cells as the source of AEBS. Cells were incubated with 5 nM [^3
unlabelled competing ligand (50 nM-1000 nM). The binding reaction was
where RBA50 is the concentration required to reduce bound [^3
competiting ligand). The data are the mean ± SEM of two experiments.

[2] = test system: cholesterol biosynthesis by EL4 cells; assay: De novo cholesterol biosynthesis from [3H]acetate by EL4 cells; assay type: cell-based; conditions: for % total radioactivity incorporated as cholesterol, experiment I / % total radioactivity incorporated as cholesterol, experiment II: single determinations of triplicate; for % total radioactivity incorporated as cholesterol, Mean: two experiments in triplicate
Description: (§1) De novo synthesis of cholesterol by EL4 cells from [^3 H]acetic acid, sodium salt (Amersham) (103 GBq/mmol) was quantitated using [4-^14 C]cholesterol (Amersham) (2.04 GBq/mmol) as internal standard by the method of Ho et al., J.Exp.Med.(1977) 145:1531-1549). Each determination was performed in triplicate, each consisting of 0.8 ml of a cell suspension (2×10^7 EL4 cells/ml) incubated with [^3 H]acetate (0.25 mM) and the test compound (0.1 ml, 10^-6 M-10^-4 M) for 5 or 48 hours at 37° C.
^a EL4 cells (20 × 10^6 cells/ml in well) were incubated
with 0.25 mM [^3 H]acetate in the absence or presence of 2 (10^-6
^b EL4 cells (20 × 10^6 cells/ml in well) were incubated
with 0.25 mM [^3 H] acetate in the absence or presence of 2 (10^-
with 0.25 mM [^3 H]acetate in the absence or presence of 4 (10^-4

[3] = biological target: T1, estrogen receptor (ER) (Homo sapiens, UniProt P03372); assay: Competitive displacement of [3H]estradiol from ER in MCF7 whole cells; assay type: binding; conditions: 5 nM [3H]estradiol, hundredfold excess of test compound, mean ± SEM of two experiments, read-out: Bound [3H]estradiol (% of control)
T1 construct: ER present in an established human breast carcinoma-derivedcell line, MCF7; endogenous in cells; host or cells: MCF7 whole cells
T1 sequence (P03372 1-595): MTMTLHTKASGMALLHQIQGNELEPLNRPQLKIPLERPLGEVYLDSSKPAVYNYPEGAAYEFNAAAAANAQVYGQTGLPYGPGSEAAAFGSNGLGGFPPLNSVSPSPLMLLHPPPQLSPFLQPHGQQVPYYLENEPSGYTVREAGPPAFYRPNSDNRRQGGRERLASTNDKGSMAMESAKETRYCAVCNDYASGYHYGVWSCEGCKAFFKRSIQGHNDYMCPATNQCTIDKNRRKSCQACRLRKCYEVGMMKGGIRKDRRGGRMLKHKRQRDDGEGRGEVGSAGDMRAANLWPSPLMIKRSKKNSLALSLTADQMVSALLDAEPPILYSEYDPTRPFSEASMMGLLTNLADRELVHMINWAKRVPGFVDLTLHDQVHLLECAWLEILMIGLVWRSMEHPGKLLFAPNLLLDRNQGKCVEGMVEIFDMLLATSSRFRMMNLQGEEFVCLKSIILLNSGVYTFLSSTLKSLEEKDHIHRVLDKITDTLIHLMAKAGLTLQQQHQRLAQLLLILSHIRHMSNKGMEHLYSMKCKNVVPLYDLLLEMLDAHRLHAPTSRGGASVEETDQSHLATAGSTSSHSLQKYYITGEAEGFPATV
Description: ^a Determined by competitive ligand binding assays using MCF7 whole
cells as the receptor source. Cells were incubated with 5 nM [^3
H]estradiol in the absence or presence of a hundredfold excess of DES or
each test compound. The binding reaction was performed and bound [^3
H]estradiol quantitated as described in the experimental section.
^b Bound [^3 H]estradiol in the absence of unlabelled competing
ligand was set at 100%. The data are the mean ± SEM of two experiments

[4] = test system: EL4 cells; assay: [3H]Thymidine incorporation (antiproliferative activity) by EL4 cells; assay type: cell-based; conditions: Mus musculus, 48 hours, mean ± SEM of two experiments, read-out: IC50 EL4 (inhibition of [3H]thymidine incorporation)
Description: (§2) After 48 hours, each well was pulsed with [^3 H]thymidine (New England Nuclear)(74 KBq/well, 0.02 ml/well) for 60 minutes. Macromolecular incorporation of [^3 H]thymidine was quantitated by harvesting cells on a Brandel harvester fitted with scintillant-coated glass microfibre filters (Ready Filters, Beckman).
(§3) [^3 H]Thymidine incorporation by MCF7 and RTx6 cells was determined by the same technique with the following modifications: (i) cells were plated at 4,500 cells/well (0.18 ml/well); (ii) compounds and [^3 H]thymidine (37 KBq/well, 0.02 ml/well) were added 24 hours after plating; (iii) cells were trypsinized (0.05 ml of 0.05%/0.53 mM EDTA/well) prior to harvesting.

[5] = test system: MCF7 cells; assay: [3H]Thymidine incorporation (antiproliferative activity) by MCF7 cells; assay type: cell-based; conditions: Homo sapiens, 48 hours, mean ± SEM of two experiments, read-out: IC50 MCF7 (inhibition of [3H]thymidine incorporation)
Description: as §2, §3

[6] = Cell viability of EL4 cells by trypan blue exclusion; assay type: cell-based; conditions: mouse, el4 cells, trypan blue exclusion
Description: (§4) Cell counts were performed manually using a Neubauer hemocytometer. Cell viability was assessed by trypan blue exclusion. The table below (Table HI) is a summary
as §1
(§5) ^e Cell viability was estimated by trypan blue exclusion.
(§6) ^d Cell viability was estimated by trypan blue exclusion.

[7] = test system: human breast carcinoma; conditions: clinical trials; prior art; cited from earlier work
[8] = test system: estrogen receptor (ER); conditions: prior art, cited from earlier work
[9] = prior art; cited from earlier work
[10] = test system: EL4 cells; assay: Cell viability of EL4 cells by trypan blue exclusion; assay type: cell-based; conditions: compound 2, 5 hours
Description: as §4, §1, §5, §6

[11] = compound 2, concentration 10^-M [sic], 48 hours

Compound: COc1ccc2c(-c3ccc(OCCN(C)C)cc3)c(Cc3ccc(Cl)cc3)oc2c1 [Compound 1]
RBA [1]: 391 ± 195 | remaining activity at 0.5 µM [3]: 98 ± 1% | IC50 [4]: 950 ± 50 nM | IC50 [5]: 5.025 ± 0.025 µM

Compound: COc1ccc(C2=C(C(=O)c3ccc(OCCN4CCCC4)cc3)c3ccccc3CC2)cc1 [Trioxifene]
clinical efficacy as antiestrogen (in words) [7]: an effective antiestrogen in clinical trials | estrogenic activity (in words) ([8]; compared with tamoxifen): possesses greater estrogenic activity than tamoxifen

Compound: COc1ccc2c(-c3ccc(OCCN4CCCCC4)cc3)c(Cc3ccc(Cl)cc3)oc2c1 [Compound 3, 2-(p-Chlorobenzyl)-3-[p-(2-piperidinoethoxy)phenyl]-6-methoxybenzo[b]furan]
RBA [1]: 605 ± 371 | remaining activity at 0.5 µM [3]: 93.5 ± 0.5% | IC50 [4]: 300 ± 150 nM | IC50 [5]: 2.05 ± 0.05 µM

Compound: CC/C(=C(\c1ccccc1)c1ccc(OCCN(C)C)cc1)c1ccccc1 [1a (Tamoxifen), 1-[4-(2-dimethylaminoethoxy)phenyl]-1,2-diphenylbut1-(Z)-ene]
adverse side effects (in words) [7]: low incidence of adverse side effects | clinical efficacy as antiestrogen (in words) [7]: established its efficacy | antagonist/agonist character (in words) [8]: partial antagonists/agonists | RBA [1]: 100

Compound: O=C(c1ccc(OCCN2CCCC2)cc1)c1c(-c2ccc(O)cc2)sc2cc(O)ccc12 [LY117018]
duration of action in vivo (in words) [9]: shorter duration of action in vivo | antagonist/agonist character (in words) [8]: partial antagonists/agonists (like tamoxifen)

Now from value to compound, other results behind:

remaining activity at 0.5 µM [3]: 104 ± 2.5% | IC50 [5]: 6.5 ± 0.5 µM
Compound: COc1ccc2c(-c3ccc(OCCN4CCOCC4)cc3)c(Cc3ccc(Cl)cc3)oc2c1 [Compound 4]
RBA [1]: 1828 ± 446 | % inhibition of cholesterol synthesis ([2]; compound 4, 10^-4 M, 5 hours, p < 0.05, Student's t test): 56% | % total radioactivity incorporated as cholesterol, experiment I ([2]; compound 4, 10^-4 M, 5 hours): 0.19% and 0.09% and 0.05% | % total radioactivity incorporated as cholesterol, experiment II ([2]; compound 4, 10^-4 M, 5 hours): 0.11% and 0.12% | % total radioactivity incorporated as cholesterol, Mean ([2]; compound 4, 10^-4 M, 5 hours, control 0.25 ± 0.02): 0.11 ± 0.03% | incorporation of [3H]acetate into cholesterol (in words) ([2]; compound 4 at higher concentration (Table V)): decreased incorporation of [^3 H]acetate into cholesterol | IC50 [4]: 335 ± 145 nM | viability at 5 h, 100 µM ([6]; compound 4, 10^-4 M, 5 hours, control 96): 79%

IC50 [5]: 2.3 ± 0.1 µM
Compound: COc1ccc2c(-c3ccc(OCCN4CCCC4)cc3)c(Cc3ccc(Cl)cc3)oc2c1 [Compound 2, 2-(p-Chlorobenzyl)-3-[p-(2-pyrrolidinoethoxy)phenyl]-6-methoxybenzo[b]furan]
RBA [1]: 268 ± 92 | inhibition of cholesterol biosynthesis (in words) ([2]; as early as 5 hours after treatment): significant inhibition of cholesterol biosynthesis | % inhibition of cholesterol synthesis ([2]; compound 2, 10^-6 M, 5 hours, p < 0.01, Student's t test): 48% | % total radioactivity incorporated as cholesterol, experiment I ([2]; compound 2, 10^-6 M, 5 hours): 0.13% and 0.10% and 0.12% | % total radioactivity incorporated as cholesterol, experiment II ([2]; compound 2, 10^-6 M, 5 hours): 0.11% and 0.12% and 0.14% | % total radioactivity incorporated as cholesterol, Mean ([2]; compound 2, 10^-6 M, 5 hours, control 0.23 ± 0.02): 0.12 ± 0.01% | % inhibition of cholesterol synthesis ([2]; compound 2, concentration 10^-M [sic], 48 hours, p < 0.01, Student's t test): 47% | % total radioactivity incorporated as cholesterol, experiment I [2, 11]: 0.16% and 0.15% and 0.24% | % total radioactivity incorporated as cholesterol, experiment II [2, 11]: 0.14% and 0.17% | % total radioactivity incorporated as cholesterol, Mean ([2]; compound 2, concentration 10^-M [sic], 48 hours, control 0.32 ± 0.02): 0.17 ± 0.02% | IC50 [4]: 475 ± 225 nM | cell viability (in words) [10]: not associated with loss of cell viability | viability at 5 h, 1 µM ([6]; compound 2, 10^-6 M, 5 hours, control 96): 91% | viability at 48 h ([6]; compound 2, concentration 10^-M [sic], 48 hours, control 92): 87%
